# Test results from US11485751B2, “Apramycin derivatives” (WAYNE STATE UNIVERSITY, priority 2017, dated 2022).
# Assays:
# [1] = system: clinical isolates carrying AAC(3)-IV; assay: MIC broth microdilution, AAC(3)-IV; type: cell-based; conditions: for MIC: clinical isolates, IMM Univ. Zurich, AAC(3)-IV, read-out: MIC AAC(3)-IV
# Outline: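 Clinical isolates supplied by the Zurich Institute of Medical Microbiology were tested for MIC (μg/ml) using CLSI M07-A10 broth microdilution.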
# [2] = system: clinical isolates carrying APH(3′)-I; assay: MIC broth microdilution, APH(3′)-I; type: cell-based; conditions: IMM Univ. Zurich
# From the text: (§1) Minimal inhibitory concentrations (MIC) have been determined by broth microdilution assays (CLSI. Methods for Dilution Antimicrobial Susceptibility Tests for Bacteria That Grow Aerobically; Approved Standard—Tenth Edition. CLSI document M07-A10. Wayne, Pa.: Clinical and Laboratory Standards Institute; 2015.).
# (§2) Minimal inhibitory concentrations (MICs, […]) against clinical isolates from Institute of Medical Microbiology, Univ. Zurich, and the IC50 values for bacterial, human mitochondrial and human cytosolic ribosomes are indicated.
# [3] = system: clinical isolates carrying APH(3′)-II; assay: MIC broth microdilution, APH(3′)-II; type: cell-based; conditions: clinical isolates, IMM Univ. Zurich; APH(3′)-II; read-out: MIC APH(3′)-II
# From the text: as §1, §2
# [4] = system: clinical isolates carrying APH(3′)-III; assay: MIC broth microdilution, APH(3′)-III; type: cell-based; conditions: IMM Univ. Zurich
# From the text: as §1, §2
# [5] = system: clinical isolates carrying APH(3′)-VI; assay: MIC broth microdilution, APH(3′)-VI; type: cell-based; conditions: IMM Univ. Zurich
# From the text: as §1, §2
# bacterial ribosomes = assay: in-vitro translation assay, bacterial ribosomes; type: biochemical
# Outline: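 Each ribosome preparation (bacterial, human chimeric as the mitochondrial model, rabbit reticulocyte as the cytosolic model) drives in-vitro translation with the test compound present. Inhibition of translation gives the IC50.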
# [6] = system: human mitochondrial ribosomes; assay: in-vitro translation assay, human mitochondrial (human chimeric) ribosomes; type: biochemical
# Outline: (§3)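 Cell-free translation; IC50 read-out. Mito = human chimeric ribosomes; cytosolic = rabbit reticulocyte ribosomes; bacterial ribosomes run in the same assay format.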
# [7] = system: human cytosolic ribosomes; assay: in-vitro translation assay, human cytosolic ribosomes; type: biochemical
# Outline: as §3
# [8] = system: AG212, Escherichia coli ATCC25922; assay: MIC reference strain AG212; type: cell-based; conditions: Escherichia coli; reference strain ATCC25922; read-out: MIC AG212 E. coli
# Outline: (§4)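 Broth microdilution per CLSI standard (aerobic bacteria); value reported is the MIC.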
# [9] = system: AG215, Klebsiella pneumonia; assay: MIC reference strain AG215; type: cell-based; conditions: Klebsiella pneumoniae, reference strain; read-out: MIC AG215 K. pneumonia
# Outline: as §4
# [10] = system: AG290, Enterobacter cloacae; assay: MIC reference strain AG290; type: cell-based; conditions: Enterobacter cloacae; reference strain; read-out: MIC AG290 E. cloacae
# Outline: as §4
# [11] = system: AG220, Pseudomonas aeruginosa ATCC27853; assay: MIC reference strain AG220; type: cell-based; conditions: Pseudomonas aeruginosa, ATCC27853, reference strain ATCC27853; read-out: MIC AG220 P. aeruginosa
# Outline: as §4
# [12] = system: AG225, Acinetobacter baumannii pittii; assay: MIC reference strain AG225; type: cell-based; conditions: Acinetobacter baumannii, reference strain; read-out: MIC AG225 A. baumannii
# Outline: as §4
# [13] = system: SZ380, Mycobacterium smegmatis; assay: MIC reference strain SZ380; type: cell-based; conditions: Mycolicibacterium smegmatis, reference strain; read-out: MIC SZ380 M. smegmatis
# Outline: as §4
# ATCC19977 M. abcessus = assay: MIC reference strain ATCC19977; type: cell-based; conditions: read-out: MIC ATCC19977 M. abcessus
# Outline: (§5)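 Broth microdilution, CLSI dilution method for aerobic bacteria; read-out is minimal inhibitory concentration (MIC).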
# AG001 E. coli WT = assay: Antibacterial activity, clinical isolate AG001; type: cell-based; set-up: unit not given here
# Outline: as §5
# AG055 E. coli WT = assay: Antibacterial activity, clinical isolate AG055; type: cell-based; set-up: unit not given here
# Outline: as §5
# AG003 E. coli AAC(3)-II = assay: Antibacterial activity, clinical isolate AG003; type: cell-based
# Outline: as §5
# AG173 E. coli AAC(3)-IV = assay: Antibacterial activity, clinical isolate AG173; type: cell-based
# Outline: as §5
# AG163 E. coli APH(3′)-I = assay: Antibacterial activity, clinical isolate AG163; type: cell-based
# Outline: as §5
# AG038 MRSA = assay: Antibacterial activity, clinical isolate AG038; type: cell-based; set-up: unit not given here
# Outline: as §5
# [14] = system: AG039 MRSA AAC(6′)-I ANT(4′)-I; assay: Antibacterial activity, clinical isolate AG039; type: cell-based
# Outline: as §5
# [15] = system: AG042 MRSA AAC(6′)-I ANT(4′)-I APH(2′); assay: Antibacterial activity, clinical isolate AG042; type: cell-based; set-up: unit not given here
# Outline: as §5
# AG031 P. aer. APH(3′)-II = assay: Antibacterial activity, clinical isolate AG031; type: cell-based; set-up: unit not given here
# Outline: as §5
# AG032 P. aer. APH(3′)-II = assay: Antibacterial activity, clinical isolate AG032; type: cell-based; set-up: unit not given here
# Outline: as §5
# [16] = system: AG033 P. aer. APH(3′)-II AAC(6′)-I; assay: Antibacterial activity, clinical isolate AG033; type: cell-based; set-up: unit not given here
# Outline: as §5
# [17] = system: Engineered E. coli pH430 WT; assay: Activity, engineered E. coli pH430 WT; type: cell-based; conditions: wild type
# Outline: (§6)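 Broth microdilution per CLSI M07-A10; readout MIC.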
# [18] = system: Engineered E. coli AG103 armA; assay: Activity against G1405-methylated 16S-rRNA, E. coli AG103 armA; type: cell-based
# Outline: as §6
# [19] = system: Engineered E. coli pH424 armA; assay: Activity against G1405-methylated 16S-rRNA, E. coli pH424 armA; type: cell-based
# Outline: as §6
# [20] = system: Engineered E. coli pH425 rmtB; assay: Activity against G1405-methylated 16S-rRNA, E. coli pH425 rmtB; type: cell-based
# Outline: as §6
# [21] = system: Engineered E. coli pH426 rmtC; assay: Activity against G1405-methylated 16S-rRNA, E. coli pH426 rmtC; type: cell-based
# Outline: as §6
# [22] = system: Engineered E. coli pH427 rmtF; assay: Activity against G1405-methylated 16S-rRNA, E. coli pH427 rmtF; type: cell-based
# Outline: as §6
# [23] = system: APH(3′, 5″) resistance determinant; assay: Susceptibility to the APH(3′, 5″) resistance determinant; type: cell-based
# From the text: as §1
# The introduction of a formamido group results in compounds that display increased selectivity for the bacterial ribosome over the mitochondrial (wild type and A1555G mutant) ribosomes, predictive of reduced ototoxicity.
SMILES,MIC [1],MIC [2],MIC [3],MIC [4],MIC [5],IC50 (bacterial ribosomes),IC50 [6],IC50 [7],MIC [8],MIC [9],MIC [10],MIC [11],MIC [12],Antibacterial activity AG001 E. coli WT (AG001 E. coli WT),Antibacterial activity AG055 E. coli WT (AG055 E. coli WT),Antibacterial activity AG003 E. coli AAC(3)-II (AG003 E. coli AAC(3)-II),Antibacterial activity AG173 E. coli AAC(3)-IV (AG173 E. coli AAC(3)-IV),Antibacterial activity AG163 E. coli APH(3′)-I (AG163 E. coli APH(3′)-I),Antibacterial activity AG038 MRSA (AG038 MRSA),Antibacterial activity AG039 MRSA AAC(6′)-I ANT(4′)-I [14],other results
"CNC1C(OC2OC(CO)C(N)C(O)C2O)OC2CC(N)C(OC3C(N)CC(N)C(O)C3OC3OC(CNC=O)C(O)C3O)OC2C1O [DC177, 5-O-β-(5′″-Formamido-5′″-deoxy-D-ribefuranosyl) apramycin]",> 32 µg/mL,4 µg/mL,8 µg/mL,2 µg/mL,8 µg/mL,0.23 µM,399 µM,> 500 µM,8 µg/mL,4 µg/mL,8 µg/mL,> 64 µg/mL,16 µg/mL,8,16,8,>64,8,32,16-32,MIC [13]: 2 µg/mL; MIC (ATCC19977 M. abcessus): 16 µg/mL; Antibacterial activity AG042 MRSA AAC(6′)-I ANT(4′)-I APH(2′) [15]: 32; Antibacterial activity AG031 P. aer. APH(3′)-II (AG031 P. aer. APH(3′)-II): >32; Antibacterial activity AG032 P. aer. APH(3′)-II (AG032 P. aer. APH(3′)-II): >32; Antibacterial activity AG033 P. aer. APH(3′)-II AAC(6′)-I [16]: >32; Activity E. coli pH430 WT [17]: 8; Activity E. coli AG103 armA [18]: 2-4; Activity E. coli pH424 armA [19]: 8; Activity E. coli pH425 rmtB [20]: 8; Activity E. coli pH426 rmtC [21]: 16; Activity E. coli pH427 rmtF [22]: 8
"CNC1C(OC2OC(CO)C(N)C(O)C2O)OC2CC(N)C(OC3C(N)CC(N)C(O)C3OC3OC(CO)C(OC4OC(CN)C(O)C(O)C4N)C3O)OC2C1O (stereo not drawn) [DC138, 5-O-β-(Paromobiosyl) apramycin]",> 32 µg/mL,16 µg/mL,2 µg/mL,1 to 2 µg/mL,4 µg/mL,0.1 µM,2.2 µM,18 µM,2 µg/mL,1 µg/mL,2 µg/mL,16 µg/mL,4 µg/mL,4,8,4,1-2,8,2-4,2-4,"activity against the IMM clinical isolates carrying the gene for AAC(3)-IV [1]: excellent antiribosomal and antibacterial activity; Antibacterial activity AG042 MRSA AAC(6′)-I ANT(4′)-I APH(2′) [15]: 2; Antibacterial activity AG031 P. aer. APH(3′)-II (AG031 P. aer. APH(3′)-II): 32-64; Antibacterial activity AG032 P. aer. APH(3′)-II (AG032 P. aer. APH(3′)-II): 64; Antibacterial activity AG033 P. aer. APH(3′)-II AAC(6′)-I [16]: 64; Activity E. coli pH430 WT [17]: 2; Activity E. coli AG103 armA [18]: <0.125; Activity E. coli pH424 armA [19]: 1; Activity E. coli pH425 rmtB [20]: 1; Activity E. coli pH426 rmtC [21]: 1; Activity E. coli pH427 rmtF [22]: 1; susceptibility to the APH(3′, 5″) resistance determinant [23]: susceptible"
"CNC1C(OC2OC(CO)C(N)C(O)C2O)OC2CC(N)C(OC3C(N)CC(N)C(O)C3OC3OC(CO)C(OCCO)C3O)OC2C1O [DC178, 5-O-β-[3′″-O-(2-Hydroxyethyl)-D-ribofuranosyl] apramycin]",> 32 µg/mL,> 64 µg/mL,8 µg/mL,2 µg/mL,16 µg/mL,0.22 µM,647 µM,> 500 µM,8 µg/mL,4 µg/mL,8 µg/mL,> 64 µg/mL,16 µg/mL,32,16,16,32-64,8,16-32,32,MIC [13]: 2 µg/mL; MIC (ATCC19977 M. abcessus): 32 µg/mL; Antibacterial activity AG042 MRSA AAC(6′)-I ANT(4′)-I APH(2′) [15]: 32; Antibacterial activity AG031 P. aer. APH(3′)-II (AG031 P. aer. APH(3′)-II): >32; Antibacterial activity AG032 P. aer. APH(3′)-II (AG032 P. aer. APH(3′)-II): >32; Antibacterial activity AG033 P. aer. APH(3′)-II AAC(6′)-I [16]: >32; Activity E. coli pH430 WT [17]: 8; Activity E. coli AG103 armA [18]: 2; Activity E. coli pH424 armA [19]: 2; Activity E. coli pH425 rmtB [20]: 8; Activity E. coli pH426 rmtC [21]: 8; Activity E. coli pH427 rmtF [22]: 8
